One block for each compound: values may come before it. Active and inactive are the calls of the source.
Tests used:
[1] = biological target: T1, Corticotropin-releasing factor receptor 2/Corticotropin-releasing factor-binding protein (Homo sapiens, UniProt P24387+Q13324); test: Dose Response confirmation of uHTS hits for small molecule antagonists of the CRF-binding protein and CRF-R2 receptor complex.; format: functional; settings: read-out: IC50_Mean
T1 sequence (Q13324 whole entry): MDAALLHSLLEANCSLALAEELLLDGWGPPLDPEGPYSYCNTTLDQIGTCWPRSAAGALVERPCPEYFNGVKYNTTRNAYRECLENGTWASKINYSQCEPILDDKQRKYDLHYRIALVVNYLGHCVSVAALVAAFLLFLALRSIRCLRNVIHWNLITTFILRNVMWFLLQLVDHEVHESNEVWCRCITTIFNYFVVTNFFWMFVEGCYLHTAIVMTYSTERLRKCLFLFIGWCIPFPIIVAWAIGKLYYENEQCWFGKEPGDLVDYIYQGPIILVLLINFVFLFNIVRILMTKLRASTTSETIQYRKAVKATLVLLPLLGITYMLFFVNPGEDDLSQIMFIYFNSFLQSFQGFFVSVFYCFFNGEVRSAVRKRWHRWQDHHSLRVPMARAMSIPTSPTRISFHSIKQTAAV
T1 sequence (P24387 whole entry): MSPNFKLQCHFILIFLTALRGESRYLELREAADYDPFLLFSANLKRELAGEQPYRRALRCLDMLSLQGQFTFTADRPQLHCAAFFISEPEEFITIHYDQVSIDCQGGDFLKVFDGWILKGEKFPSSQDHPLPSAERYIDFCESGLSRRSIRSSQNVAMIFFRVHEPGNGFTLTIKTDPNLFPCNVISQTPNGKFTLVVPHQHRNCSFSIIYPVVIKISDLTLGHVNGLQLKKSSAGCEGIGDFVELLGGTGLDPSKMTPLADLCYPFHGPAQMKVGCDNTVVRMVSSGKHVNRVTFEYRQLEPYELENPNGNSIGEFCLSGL

[2] = biological target: T1, Corticotropin-releasing factor receptor 2/Corticotropin-releasing factor-binding protein; test: activators of CRF receptor 2 with binding protein – uHTS hits, confirmation (AID 602473); format: functional; settings: read-out: EC50_Mean
[3] = biological target: Arf-GAP with SH3 domain, ANK repeat and PH domain-containing protein 1 (Homo sapiens, UniProt Q9ULH1); format: functional;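 note: biochemical fluorescence polarization dose–response screen measuring inhibition of ASAP1; ASAP1 GAP domain stimulating GTP hydrolysis by truncated human ARF1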
[4] = biological target: T2, DNA repair and recombination protein RAD54-like (Homo sapiens, UniProt Q92698); test: inhibitors of human RAD54 branch migration, confirmation, biochemical, fluorescence, cherry-picked samples, dose series (AID 651657); format: functional
T2 sequence (Q92698 whole entry): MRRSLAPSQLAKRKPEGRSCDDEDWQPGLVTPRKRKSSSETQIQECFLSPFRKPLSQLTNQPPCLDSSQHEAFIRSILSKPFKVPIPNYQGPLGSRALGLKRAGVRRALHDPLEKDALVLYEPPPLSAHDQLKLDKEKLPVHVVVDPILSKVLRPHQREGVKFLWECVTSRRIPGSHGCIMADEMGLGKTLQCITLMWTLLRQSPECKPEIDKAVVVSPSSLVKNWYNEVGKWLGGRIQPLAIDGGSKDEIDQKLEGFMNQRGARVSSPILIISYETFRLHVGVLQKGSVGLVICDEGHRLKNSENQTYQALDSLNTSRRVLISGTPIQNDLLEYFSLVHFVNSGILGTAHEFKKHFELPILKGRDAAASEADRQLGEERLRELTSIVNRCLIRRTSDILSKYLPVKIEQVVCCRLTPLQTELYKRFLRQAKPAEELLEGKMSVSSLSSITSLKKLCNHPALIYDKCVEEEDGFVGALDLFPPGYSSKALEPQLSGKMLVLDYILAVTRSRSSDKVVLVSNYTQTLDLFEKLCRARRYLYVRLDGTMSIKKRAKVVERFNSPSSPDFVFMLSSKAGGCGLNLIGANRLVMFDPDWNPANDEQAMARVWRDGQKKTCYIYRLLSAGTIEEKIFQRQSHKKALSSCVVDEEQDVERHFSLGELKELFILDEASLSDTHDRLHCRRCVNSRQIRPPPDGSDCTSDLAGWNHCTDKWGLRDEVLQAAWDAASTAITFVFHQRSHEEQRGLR

[5] = biological target: T3, Probable nicotinate-nucleotide adenylyltransferase (Staphylococcus aureus (strain N315), UniProt P65502); format: functional, Staphylococcus aureus subsp. aureus N315;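 for IC50 Mean: confirmatory dose-response retesting of NadD inhibitor hits first found in an ultra-high-throughput screen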
[6] = biological target: T3, Probable nicotinate-nucleotide adenylyltransferase; format: functional, Staphylococcus aureus subsp. aureus N315; settings: read-out: IC50_Mean
[7] = Luminescence Cell-Based Dose Retest to Confirm Inhibitors of Cancer Stem Cells. [Related pubchem assays (depositor defined):AID2717, AID2721]; format: functional; settings: Homo sapiens
[8] = cytotoxicity in HMLE control line with eGFP shRNA, dose response, counter-screen for HMLE_sh_ECad selective toxicity project, cell-based, HMLE_sh_eGFP, luminescence (AID 463074); format: functional, Homo sapiens;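 note: HMLE human mammary epithelial cells expressing control shRNA against eGFP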
[9] = biological target: SWI/SNF-related matrix-associated actin-dependent regulator of chromatin subfamily A member 2 (Homo sapiens, UniProt P51531); test: Luminescence-based cell-based high throughput dose response assay to identify activators of the function of SWI/SNF related, matrix associated, actin dependent regulator of chromatin, subfamily a, member 2 (SMARCA2, BRM).; format: functional
[10] = Counterscreen for activators of the function of SWI/SNF related, matrix associated, actin dependent regulator of chromatin, subfamily a, member 2 (SMARCA2, BRM): Luminescence-based cell-based high throughput dose response assay to identify non-selective compounds using the VP16 reporter assay.; format: functional
[11] = biological target: Heat shock protein HSP 90-alpha (Homo sapiens, UniProt P07900); format: functional, organism-based
[12] = biological target: T4, Rac GTPase-activating protein 1 (Homo sapiens, UniProt Q9H0H5); test: MgcRacGAP GTPase-activating activity inhibitors, confirmation, biochemical, ADP Hunter fluorescence, primary and confirmatory (AID 624330); format: functional
T4 sequence (Q9H0H5 whole entry): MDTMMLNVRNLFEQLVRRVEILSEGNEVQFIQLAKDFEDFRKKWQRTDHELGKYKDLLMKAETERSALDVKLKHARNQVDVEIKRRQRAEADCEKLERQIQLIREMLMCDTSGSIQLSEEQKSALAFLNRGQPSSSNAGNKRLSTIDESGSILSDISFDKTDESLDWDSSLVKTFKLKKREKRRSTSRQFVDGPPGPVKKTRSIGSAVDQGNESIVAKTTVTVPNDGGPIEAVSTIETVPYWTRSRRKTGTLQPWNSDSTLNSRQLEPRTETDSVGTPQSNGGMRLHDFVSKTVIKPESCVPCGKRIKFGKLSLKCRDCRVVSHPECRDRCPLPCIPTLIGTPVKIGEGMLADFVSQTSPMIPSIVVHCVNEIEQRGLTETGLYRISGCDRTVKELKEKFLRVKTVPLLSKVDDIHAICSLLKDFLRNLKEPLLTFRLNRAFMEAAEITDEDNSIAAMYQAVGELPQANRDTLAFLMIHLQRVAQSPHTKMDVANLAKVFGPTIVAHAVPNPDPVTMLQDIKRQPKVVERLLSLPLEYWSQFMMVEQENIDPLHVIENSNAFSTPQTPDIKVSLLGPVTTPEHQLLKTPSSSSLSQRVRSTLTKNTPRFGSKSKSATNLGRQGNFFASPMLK

Protein Wnt-3a = Protein Wnt-3a (Mus musculus, UniProt P27467); test: Wnt3a-driven reporter signaling inhibition, dose response, selectivity assay for Gli-SUFU antagonist project, Wnt-LIGHT cells, luminescence (AID 651570); format: functional; settings: read-out: IC50_Mean;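 note: Wnt-LIGHT reporter cells stimulated with conditioned medium from Wnt3a-producing cells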
[13] = biological target: T5, DNA repair protein RAD52 homolog (Homo sapiens, UniProt P43351); format: functional, biochemical
T5 sequence (P43351 whole entry): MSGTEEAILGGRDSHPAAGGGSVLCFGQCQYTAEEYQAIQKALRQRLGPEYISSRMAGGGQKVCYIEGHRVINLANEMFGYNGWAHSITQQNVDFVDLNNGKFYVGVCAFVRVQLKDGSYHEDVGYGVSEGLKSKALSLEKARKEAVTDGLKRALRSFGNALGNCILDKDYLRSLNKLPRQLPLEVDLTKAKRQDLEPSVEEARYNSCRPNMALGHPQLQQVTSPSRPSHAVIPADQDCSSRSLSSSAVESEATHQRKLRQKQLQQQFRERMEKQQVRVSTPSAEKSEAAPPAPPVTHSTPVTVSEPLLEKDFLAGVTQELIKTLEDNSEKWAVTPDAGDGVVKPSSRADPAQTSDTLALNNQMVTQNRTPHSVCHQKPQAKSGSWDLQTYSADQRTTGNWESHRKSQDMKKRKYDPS

[14] = biological target: T6, Heat shock factor protein 1 (Mus musculus, UniProt P38532); test: inhibition of MG132-induced HSE-luciferase signal, confirmation, cell-based, NIH3T3, luminescence, dose retest (AID 2382); format: functional;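 note: NIH3T3 fibroblasts with HSF1-driven luciferase reporter stressed by proteasome inhibitor MG132; luminescence from HSF1-driven luciferase expression after 8 hours of MG132 stress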
T6 sequence (P38532 whole entry): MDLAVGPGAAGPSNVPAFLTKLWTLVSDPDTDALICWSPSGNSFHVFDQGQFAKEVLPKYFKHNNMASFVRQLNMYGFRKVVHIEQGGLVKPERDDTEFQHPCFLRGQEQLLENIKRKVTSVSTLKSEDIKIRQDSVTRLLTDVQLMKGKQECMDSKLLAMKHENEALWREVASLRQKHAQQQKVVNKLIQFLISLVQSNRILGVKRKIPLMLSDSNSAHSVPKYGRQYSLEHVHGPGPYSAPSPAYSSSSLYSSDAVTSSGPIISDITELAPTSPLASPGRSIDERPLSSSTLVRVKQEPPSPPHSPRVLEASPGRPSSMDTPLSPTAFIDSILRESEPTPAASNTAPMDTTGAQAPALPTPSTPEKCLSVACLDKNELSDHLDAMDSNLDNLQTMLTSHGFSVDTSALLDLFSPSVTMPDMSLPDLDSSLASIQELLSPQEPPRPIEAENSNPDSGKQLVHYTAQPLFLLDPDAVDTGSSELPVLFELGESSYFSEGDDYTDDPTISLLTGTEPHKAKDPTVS

Sequence of Arf-GAP with SH3 domain, ANK repeat and PH domain-containing protein 1 (Q9ULH1 whole entry, the tested form may be a part): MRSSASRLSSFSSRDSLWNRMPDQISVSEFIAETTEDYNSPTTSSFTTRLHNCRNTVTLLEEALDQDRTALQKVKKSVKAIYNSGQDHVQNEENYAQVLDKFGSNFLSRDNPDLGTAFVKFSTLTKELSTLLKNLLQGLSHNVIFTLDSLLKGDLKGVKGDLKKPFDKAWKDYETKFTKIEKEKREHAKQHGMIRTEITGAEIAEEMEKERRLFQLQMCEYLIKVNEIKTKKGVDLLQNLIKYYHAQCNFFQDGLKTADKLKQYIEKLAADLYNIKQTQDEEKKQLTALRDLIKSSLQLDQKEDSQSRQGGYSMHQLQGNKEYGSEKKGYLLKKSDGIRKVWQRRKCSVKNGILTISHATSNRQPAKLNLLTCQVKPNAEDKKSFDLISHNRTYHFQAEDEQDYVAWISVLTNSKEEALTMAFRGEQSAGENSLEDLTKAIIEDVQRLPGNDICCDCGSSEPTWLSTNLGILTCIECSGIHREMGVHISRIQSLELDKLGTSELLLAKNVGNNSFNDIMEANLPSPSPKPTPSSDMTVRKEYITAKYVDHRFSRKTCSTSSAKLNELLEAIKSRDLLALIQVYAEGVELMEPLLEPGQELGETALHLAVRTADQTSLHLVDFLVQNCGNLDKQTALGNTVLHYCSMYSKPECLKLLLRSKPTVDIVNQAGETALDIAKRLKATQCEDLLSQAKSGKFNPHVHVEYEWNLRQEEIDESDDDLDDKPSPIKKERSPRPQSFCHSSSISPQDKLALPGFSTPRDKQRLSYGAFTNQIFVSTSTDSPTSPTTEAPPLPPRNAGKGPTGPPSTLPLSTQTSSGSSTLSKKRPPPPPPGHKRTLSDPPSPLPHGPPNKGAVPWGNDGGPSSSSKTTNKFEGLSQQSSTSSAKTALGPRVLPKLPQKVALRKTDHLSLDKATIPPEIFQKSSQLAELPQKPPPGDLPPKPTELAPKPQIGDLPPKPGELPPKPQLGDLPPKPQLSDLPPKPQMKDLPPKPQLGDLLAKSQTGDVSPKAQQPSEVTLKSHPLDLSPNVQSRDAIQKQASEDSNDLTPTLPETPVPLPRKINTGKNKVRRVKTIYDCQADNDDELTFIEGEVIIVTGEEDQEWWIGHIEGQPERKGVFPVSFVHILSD
Sequence of Protein Wnt-3a (P27467 whole entry): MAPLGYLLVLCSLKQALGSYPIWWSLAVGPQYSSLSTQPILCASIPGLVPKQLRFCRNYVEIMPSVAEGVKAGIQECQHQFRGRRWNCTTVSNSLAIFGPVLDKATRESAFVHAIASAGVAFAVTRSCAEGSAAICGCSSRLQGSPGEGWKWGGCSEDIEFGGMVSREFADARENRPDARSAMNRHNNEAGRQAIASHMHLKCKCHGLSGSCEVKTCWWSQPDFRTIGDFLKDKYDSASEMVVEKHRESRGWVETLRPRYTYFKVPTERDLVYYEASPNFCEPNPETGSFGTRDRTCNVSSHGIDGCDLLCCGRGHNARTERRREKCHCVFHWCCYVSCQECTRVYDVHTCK
Sequence of SWI/SNF-related matrix-associated actin-dependent regulator of chromatin subfamily A member 2 (P51531 whole entry): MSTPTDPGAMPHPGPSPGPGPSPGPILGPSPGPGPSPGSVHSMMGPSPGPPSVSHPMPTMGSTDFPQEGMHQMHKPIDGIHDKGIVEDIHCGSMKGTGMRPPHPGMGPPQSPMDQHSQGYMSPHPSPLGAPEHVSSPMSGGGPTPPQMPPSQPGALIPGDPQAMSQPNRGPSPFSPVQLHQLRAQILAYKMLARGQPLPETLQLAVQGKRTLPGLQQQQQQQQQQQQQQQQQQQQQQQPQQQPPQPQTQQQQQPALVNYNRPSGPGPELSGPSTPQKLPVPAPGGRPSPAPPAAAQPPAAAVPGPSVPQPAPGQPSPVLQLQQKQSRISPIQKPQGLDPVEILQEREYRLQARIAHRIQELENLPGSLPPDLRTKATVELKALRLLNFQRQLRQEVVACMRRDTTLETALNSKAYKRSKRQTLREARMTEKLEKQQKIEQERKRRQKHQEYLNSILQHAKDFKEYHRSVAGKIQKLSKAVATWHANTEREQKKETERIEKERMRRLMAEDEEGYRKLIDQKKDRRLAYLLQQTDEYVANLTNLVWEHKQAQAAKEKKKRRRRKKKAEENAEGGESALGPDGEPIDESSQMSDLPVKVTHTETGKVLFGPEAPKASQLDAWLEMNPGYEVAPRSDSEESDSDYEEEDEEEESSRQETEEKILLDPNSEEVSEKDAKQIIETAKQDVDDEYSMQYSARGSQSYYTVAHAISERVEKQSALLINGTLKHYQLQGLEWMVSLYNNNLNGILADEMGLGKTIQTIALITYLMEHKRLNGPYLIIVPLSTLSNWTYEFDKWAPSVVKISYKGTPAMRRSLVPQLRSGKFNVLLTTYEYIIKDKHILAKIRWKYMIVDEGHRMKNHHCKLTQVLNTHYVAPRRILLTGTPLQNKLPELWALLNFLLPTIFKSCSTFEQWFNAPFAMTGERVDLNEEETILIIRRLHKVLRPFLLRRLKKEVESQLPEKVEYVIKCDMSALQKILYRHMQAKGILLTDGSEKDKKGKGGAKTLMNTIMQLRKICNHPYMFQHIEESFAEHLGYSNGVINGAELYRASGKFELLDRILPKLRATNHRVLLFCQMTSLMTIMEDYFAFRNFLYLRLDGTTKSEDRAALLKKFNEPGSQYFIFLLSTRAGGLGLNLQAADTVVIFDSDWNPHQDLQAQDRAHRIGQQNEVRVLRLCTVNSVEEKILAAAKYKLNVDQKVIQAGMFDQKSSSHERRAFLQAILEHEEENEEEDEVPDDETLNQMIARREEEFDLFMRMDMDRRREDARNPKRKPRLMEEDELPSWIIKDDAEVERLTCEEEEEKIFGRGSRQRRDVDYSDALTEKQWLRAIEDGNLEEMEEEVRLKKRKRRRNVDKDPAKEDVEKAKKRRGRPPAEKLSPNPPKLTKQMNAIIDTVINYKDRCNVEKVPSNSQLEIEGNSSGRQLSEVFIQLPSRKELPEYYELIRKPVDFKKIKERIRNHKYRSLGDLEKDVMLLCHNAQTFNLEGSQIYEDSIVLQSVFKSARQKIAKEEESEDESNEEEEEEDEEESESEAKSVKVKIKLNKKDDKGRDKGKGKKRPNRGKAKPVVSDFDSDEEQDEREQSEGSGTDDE

SMILES: Cc1ccc(N2C(=O)CC(N(CCc3ccccc3)C(=S)Nc3ccc(N(C)C)cc3)C2=O)cc1 (configuration not stated)
AC50 [7]: 5.65 µM (active) | AC50 [8]: 154 µM (active) | IC50 [5]: 36.8 µM (active) | IC50 [6]: 77.7 µM (active)

SMILES: O=C(Nc1nnc(SCc2ccc(F)cc2)s1)C1Cc2ccccc2CN1C(=O)c1ccco1 (configuration not stated)
IC50 [5]: 13.4 µM (active) | IC50 [6]: 34 µM (active)

SMILES: C=COC(=O)c1sc2nc(C)cc(C)c2c1N
EC50 [9]: > 91.1 µM (inactive) | EC50 [10]: > 91.1 µM (inactive)

SMILES: COC(=O)c1cc(NC(=O)c2ccc(Cn3cc(Cl)cn3)o2)cc(C(=O)OC)c1
IC50 [3]: 41 µM (inactive)

SMILES: O=C1C=CC(=O)N1c1ccc(Nc2ccccc2)cc1
AC50 [11]: 1.85 µM (active) | IC50 [12]: 27 µM (active)

SMILES: CN1/C(=C\C=N\c2ccccc2)C(C)(C)c2ccccc21
IC50 (Protein Wnt-3a): 7.05 µM (active)

SMILES: O=C(NCCNc1ccnc2cc(Cl)ccc12)c1ccccc1F
EC50 [14]: 39.7 µM (active) | IC50 (Protein Wnt-3a): 3.93 µM (active)

Other lines, results leading:

IC50 [1]: > 47.1 µM (inactive) | EC50 [2]: > 53 µM (inactive) | IC50 [3]: 33 µM (inactive)
SMILES: COc1ccc(-n2nnnc2SCC(=O)c2ccc(OC)c(OC)c2)cc1

AC50 [4]: 8.15 µM (active)
SMILES: CCN(CC)CCOc1c(Br)ccc2c1sc1nc3n(c(=O)c12)CCC3

IC50 [5]: 12.2 µM (active) | IC50 [6]: 45.9 µM (active)
SMILES: CCOC(=O)c1ccccc1N1C(=O)C2Sc3nc(O)sc3C(/C=C/c3ccccc3)C2C1=O (configuration not stated)

AC50 [4]: 100 µM (inactive) | AC50 [13]: 1.56 µM (active)
SMILES: CCN(CC)CCN1CCN(c2cncc(-c3cccc(N)c3)n2)CC1

— ChEMBL document CHEMBL1201862, “PubChem BioAssay data set” (2004)
